Measured values published in patent US7498404B2, “Compositions, methods and uses for a novel family of peptides” (priority 2004, dated 2009).

B1: Module 8 A-domain protein (Brevibacillus texasporus) (protein)
chain: ALVFGEAQLTYRELNEKANQMARGLRKQGVLPDQVIGLLTDRSLEMIIAILAIFKAGGAYMPIDPSYPSERIQYMLADSRTHLLLVQKAEMIPANYQGEVLLLTEDSWMDENTDNLDLVNQAQDLAYVMYTSGSTGKPKGNLTTHQNIVKTIMNNGYMEITPNDRLLQLSNYAFDGSTFDIYSALLNGASLILVPTHVLMNPTDLASVIQDQHITVSFMTTSLFNTLVELDVTSLKHMRKVVFGGEKASIKHVEKALDYLGAGRLVNGYGPTETTVFATTYTVDHTIKETGIMPIGRPLNNTKVFILGADNQLQPIGALGELCVSGEGLARGYLNLPELTADRFVENPFMRGERMYRTGDLARWLPDGSIEYVGRIDEQVKIRGHRIELGEIEARLLEHPAISETVLLAKQDEQGHSFLCAYLVTNGAWSVAELRKHIKETLPDSMVPSYFIEIDKMPLTSNGKADKRALPEPDVQQVSSY
B2: Module 5 A-domain protein (Brevibacillus texasporus) (protein)
chain: DKTIHQQFEQKVEENPDQIALLFKDKEITYGQLNAKANQFARVLRKHGVQPDQVVGLITDRSIEMMIGILAILKAGGAYLPIDPSYPLERITYMLEDSQAQLLIVQEAAMIPEGYQGKVLLLAEECWMQEEASNLELINDAQDLAYVMYTSGSTGKPKGNLTTHQNILRTIINNGFIEIVPADRLLQLSNYAFDGSTFDIYSALLNGATLVLVPKEVMLNPMELARIVREQDITVSFMTTSLFHTLVELDVTSMKSIRKVVFGGEKASYKHVEKALDYLGEGRLVNGYGPTETTVFATTYTVDSSIKETGIVPIGRPLNNTSVYILNENNQPQPIGVPGELCVGGAGIARGYLNRPELTAERFVDNPFLVGDRMYRTGDMARFLPDGNIEYIGRMDEQVKIRGHRIELGEIEKSLLEYPAISEAVLVAKRDEQGHSYLCAYVVSTDQWTVAKVRQHILEALPEYMVPSYFVELEKLPLTSNGKVDKRALPEPDRVITNEYV
B3: Module 4 A-domain protein (Brevibacillus texasporus) (protein)
chain: QLFEEQVDKNPNQIALVFKEEKLTYGEVNAKANQLAYVLRKQGVQPNDVIGIITERSPEMIIGILAIFKAGGAYMPIDPSYPAERIQYMLQDNQTKLLLVQKQEMIPANYQGEVLFLTQESWMHEETSNPAHITQAQALAYVMYTSGSTGEPKGILTTHQNIMKTVIHNGYVEITPGDCLSQLSNYAFDGSTFEIYGALLHGATLLLVTKEAVLNMNELARLIKKEQVTVSFMTTALFNTLVDLDITCFQSIRKVLFGGELASVKHVLKALDYLGEHRVINVYGPTETTVYATYYSVDHSMLTRASVPIGRPINNTKAYIVNTDGQPQPIGVVGELCIGGEGVACGYLNRPELTKKHFVDNPFVLGERMYCTGDLARFLPDGNIEYIGRMDEQVKIRGHRIELGEIEKVLLQHPAISETVLLAKRDEQGHSYLCAYIVGQVFWTVTELRQHLMESLPEYMVPSYFIEIEKLPLTANGKVDKRALPEPDRKMGSAYV

Key:
[1] = test system: Module 2 A-domain protein; test: ATP-PPi exchange assay, Module 2 A-domain; type: biochemical, Brevibacillus texasporus; conditions: 0.5 mM amino acid, 37° C., 15 min
Method: (§1) Cloning, overexpression, and purification of His10-tagged BT A-domain proteins. DNA fragments encoding the A-domains of the BT NRPS Modules 8, 5, 7, 4 and 2 (Bt8A, Bt5A, Bt7A, Bt4A and Bt2A) were PCR-amplified and the PCR products were inserted into the His10-tag recombinant protein expression vector pET16b (Novagen). The A-domain borders were determined as defined by (Konz, et al., 1999). The expression constructs were transformed into the E.coli BL21 -AI strain (Invitrogen). Transformants were grown in L-broth at 37° C. to an A600 of 0.6 and then induced with 1 mM IPTG (isopropyl-β-D-thiogalactopyranoside) plus 0.2% L-arabinose. The cells were allowed to grow for two additional hours at 30° C. before being harvested. Purification of the His10-tag recombinant proteins was achieved using the TALON metal affinity resins (BD Biosciences) under conditions recommended in the manual with modifications. Briefly, the E. coli cells were broken by sonication. Cell lysates were cleared by centrifugation at 25,000× g for one hour. His-tagged recombinant proteins were then incubated with the TALON resin, washed, and eluted with 500 mM imidazole. Eluted proteins were dialyzed against a buffer (50 mM HEPES, pH 8.0, 100 mM sodium chloride, 10 mM magnesium chloride, and 1 mM EDTA) and then analyzed with SDS PAGE plus Coomassie Blue staining. […] Concentrations of the purified proteins were determined by using the calculated molar extinction coefficient for the A280.
ATP-PPi exchange assay. ATP-PPi exchange assays were performed to determine the substrate specificity of an A-domain. ATP-PPi exchanges were assayed as previously described (Stachelhaus, et al., 1998) with minor modifications. The assay mixture contained 50 mM HEPES (pH 8.0), 100 mM NaCl, 10 mM MgCl2, 2 mM ATP, 0.5 mM amino acid, 0.05 mM PPi, 0.15 μCi tetrasodium [^32P]pyrophosphate. Exchange was initiated by addition of purified recombinant A-domain proteins to a total volume of 0.1 ml. The protein concentrations were 0.2 μM for Module 4 and Module 5 A-domains while 2 μM for Module 7 and Module 8 A-domains. After incubation at 37° C. for 15 min, the reaction was stopped by addition of 0.5 ml of Termination Mix (100 mM tetrasodium pyrophosphate, 3.5% HClO4, and 1.6% [w/v] activated charcoal). The charcoal was pelleted by centrifugation, washed first with 40 mM pyrophosphate plus 1.4% perchloric acid and then with water, and was re-suspended in 0.5 ml of water. The charcoal/water suspension was added to a scintillation vial containing 5.0 ml of scintillation fluid, and the bound radioactivity was determined by liquid scintillation counting. The apparent Km values were determined with substrate concentrations ranging from 0.1 to 10 mM.
(§2) Since a purified recombinant A-domain of an NRPS module can selectively and efficiently activate the cognate amino acid substrate of the NRPS module in an ATP-PPi exchange assay (Konz, et al., 1999; Mootz & Marahiel, 1997), ATP-PPi exchange assays have been used to experimentally establish NRPS module specificities and novel NRPS codons. Recombinant A-domains of Modules 8, 5, 7 ,4 and 2 of the BT NRPS were produced and purified as described in Methods and Materials. Almost completely soluble recombinant A-domain proteins were obtained. A-domain specificities were determined in ATP-PPi exchange and aa Km assays (see Methods and Materials), and the results are shown in FIG. 5. […]

[2] = target: Module 5 A-domain protein (Brevibacillus texasporus, UniProt Q2VQ15); test: ATP-PPi exchange assay, Module 5 A-domain; type: biochemical; conditions: 0.5 mM amino acid, 0.2 μM protein, 37° C., 15 min
Method: as §1, with “His-tagged recombinant proteins were then incubated with the TALON resin, washed, and eluted with 500 mM imidazole.” left out
(§3) ATP-PPi exchange assay. […] The charcoal/water suspension was added to a scintillation vial containing 5.0 ml of scintillation fluid, and the bound radioactivity was determined by liquid scintillation counting. […]
as §2, with “Recombinant A-domains of Modules 8, 5, 7 ,4 and 2 of the BT NRPS were produced and purified as described in Methods and Materials. Almost completely soluble recombinant A-domain proteins were obtained.” left out

[3] = target: Module 4 A-domain protein (Brevibacillus texasporus, UniProt Q2VQ15); test: ATP-PPi exchange assay, Module 4 A-domain; type: biochemical; conditions: 0.5 mM amino acid, 0.2 μM protein, 37° C., 15 min
Method: as §1, with “His-tagged recombinant proteins were then incubated with the TALON resin, washed, and eluted with 500 mM imidazole.” left out
as §3
as §2, with “Recombinant A-domains of Modules 8, 5, 7 ,4 and 2 of the BT NRPS were produced and purified as described in Methods and Materials. Almost completely soluble recombinant A-domain proteins were obtained.” left out

[4] = target: Module 8 A-domain protein (Brevibacillus texasporus, UniProt Q2VQ14); test: ATP-PPi exchange assay, Module 8 A-domain; type: biochemical; conditions: 0.5 mM amino acid, 2 μM protein, 37° C., 15 min
Method: as §1, with “His-tagged recombinant proteins were then incubated with the TALON resin, washed, and eluted with 500 mM imidazole.” left out
as §3
as §2, with “Recombinant A-domains of Modules 8, 5, 7 ,4 and 2 of the BT NRPS were produced and purified as described in Methods and Materials. Almost completely soluble recombinant A-domain proteins were obtained.” left out

straight run broilers = test: Growth promoting Studies 3-1 and 3-2, pelleted starter feed, batteries; type: in vivo, chicken; conditions: BT1583 12 ppm, BMD 50 ppm, COB 90 ppm, alone or combined; for 20-day cumulative weight gain, Mean: Table 18; for 21-day cumulative weight gain, estimated marginal Mean: Table 20; for 21-day cumulative weight gain, Duncan homogeneous subsets: Table 21; for 20-day cumulative feed conversion rate, Duncan homogeneous subsets: Table 25
Excerpt: Eight (8) study repetitions per treatment were used, again with 4 birds per pen.

[5] = substrate: CC(C)[C@H](N)C(=O)O; test: ATP-PPi exchange assay, Module 8 A-domain; type: biochemical, Brevibacillus texasporus; conditions: other: substrate 0.1 to 10 mM; pH 8.0
Method: as §1, with “Purification of the His10-tag recombinant proteins was achieved using the TALON metal affinity resins (BD Biosciences) under conditions recommended in the manual with modifications. Briefly, the E. coli cells were broken by sonication. Cell lysates were cleared by centrifugation at 25,000× g for one hour. His-tagged recombinant proteins were then incubated with the TALON resin, washed, and eluted with 500 mM imidazole.” left out
as §3

[6] = substrate: CC[C@H](C)[C@H](N)C(=O)O; test: ATP-PPi exchange assay, Module 5 A-domain; type: biochemical, Brevibacillus texasporus; conditions: other: substrate 0.1 to 10 mM; pH 8.0
Method: as §1, with “Purification of the His10-tag recombinant proteins was achieved using the TALON metal affinity resins (BD Biosciences) under conditions recommended in the manual with modifications. Briefly, the E. coli cells were broken by sonication. Cell lysates were cleared by centrifugation at 25,000× g for one hour. His-tagged recombinant proteins were then incubated with the TALON resin, washed, and eluted with 500 mM imidazole.” left out
as §3

[7] = substrate: CC(C)[C@H](N)C(=O)O; test: ATP-PPi exchange assay, Module 5 A-domain; type: biochemical, Brevibacillus texasporus; conditions: other: substrate 0.1 to 10 mM; pH 8.0
Method: as §1, with “Purification of the His10-tag recombinant proteins was achieved using the TALON metal affinity resins (BD Biosciences) under conditions recommended in the manual with modifications. Briefly, the E. coli cells were broken by sonication. Cell lysates were cleared by centrifugation at 25,000× g for one hour. His-tagged recombinant proteins were then incubated with the TALON resin, washed, and eluted with 500 mM imidazole.” left out
as §3

[8] = substrate: CC[C@H](C)[C@H](N)C(=O)O; test: ATP-PPi exchange assay, Module 4 A-domain; type: biochemical, Brevibacillus texasporus; conditions: other: substrate 0.1 to 10 mM; pH 8.0
Method: as §1, with “Purification of the His10-tag recombinant proteins was achieved using the TALON metal affinity resins (BD Biosciences) under conditions recommended in the manual with modifications. Briefly, the E. coli cells were broken by sonication. Cell lysates were cleared by centrifugation at 25,000× g for one hour. His-tagged recombinant proteins were then incubated with the TALON resin, washed, and eluted with 500 mM imidazole.” left out
as §3

Molecule	20-day cumulative weight gain, Mean (straight run broilers)	21-day cumulative weight gain, estimated marginal Mean (straight run broilers)	21-day cumulative weight gain, Duncan homogeneous subsets (straight run broilers)	20-day cumulative feed conversion rate, Duncan homogeneous subsets (straight run broilers)	other results
CC(C)[C@H](N)C(=O)O [L-Val]					relative substrate activation (highest activity defined as 100%) [1]: 67%; relative substrate activation (highest activity defined as 100%) [2]: 100%; relative substrate activation (highest activity defined as 100%) [3]: 9%; relative substrate activation (highest activity defined as 100%) [4]: 100%
CC[C@@]1([C@@H]2O[C@@H]([C@H]3O[C@@](O)(CO)[C@H](C)C[C@@H]3C)C[C@@H]2C)CC[C@H]([C@]2(C)CC[C@]3(C[C@H](O)[C@@H](C)[C@@H]([C@@H](C)[C@@H](OC)[C@H](C)C(=O)O)O3)O2)O1 [Monensin, reference compound]	792.8438	792.844	792.8438	1.3712	
Bacitracin MD [BMD, reference compound]	832.9688	832.969	832.9688	1.3397	
B1					Km [5]: 2750 µM
B2					Km [6]: 2780 µM; Km [7]: 1110 µM
B3					Km [8]: 500 µM
